From patent publication US20230012936A1, “COMBINATION THERAPY USING GLUCAGON AND GLP-1 CO-AGONISTS FOR THE TREATMENT OF OBESITY” (MEDIMMUNE, LLC, priority 2019, published 2023)

What was measured:
[1] = Safety: adverse events, laboratory values, vital signs, ECG; assay type: in vivo, human; settings: as judged by the investigator
Protocol: Blood samples were collected to evaluate anti-drug antibody (ADA) response to cotadutide. Serum samples were evaluated for ADA using a validated immunoassay. Adverse events (AEs) and serious adverse events (SAEs) were collected from the time of informed consent throughout the treatment period and including the follow-up period. AEs and SAEs were graded by severity and relationship to investigational product and SAEs were assessed for relationship to protocol procedures.

[2] = 10 mg/day PO, cited from earlier work
[3] = clinical; settings: for Cmax: Dapagliflozin mean Cmax
Protocol: The Cmax and the corresponding tmax were identified from the observed data. Log-linear regression of the terminal phase yielded the terminal rate constant (λz). The area under the plasma concentration time-curve during the dosing interval (AUCτ) was calculated by the log-linear trapezoidal rule. The area under the curve to infinity (AUC0-inf) was calculated as the sum of AUC(o-t) and Ct/z, where Ct is the observed plasma concentration obtained from the log-linear regression analysis of the last quantifiable time point and z is the terminal phase rate constant. Clearance (CL/F) was determined by dose/AUC0-inf, and the terminal half-life (t1/2) was calculated as 0.693/λz.

Impact of cotadutide on dapagliflozin oral absorption ([3]; dapagliflozin 10 mg/day PO): marginal impact | half-life ([3]; human, plasma, oral, 10 mg/day): ~8 h | Cmax ([3]; human, plasma, oral, cotadutide group, Day −1 (cotadutide not yet co-administered)): 117 ng/mL | Cmax ([3]; human, plasma, oral, group receiving dapagliflozin and placebo, Day 7): 92 ng/mL | Cmax ([3]; human, plasma, oral, group receiving dapagliflozin and placebo, Day 14): 95.6 ng/mL | Cmax ([3]; human, plasma, oral, group receiving dapagliflozin and placebo, Day 28): 112 ng/mL | Cmax ([3]; human, plasma, oral, group receiving dapagliflozin and placebo, Day −1): 110 ng/mL | Cmax ([3]; human, plasma, oral, in the presence of cotadutide, Day 7): 84.4 ng/mL | Cmax ([3]; human, plasma, oral, in the presence of cotadutide, Day 14): 61.1 ng/mL | Cmax ([3]; human, plasma, oral, in the presence of cotadutide, Day 28): 94.2 ng/mL
Compound: CCOc1ccc(Cc2cc([C@@H]3O[C@H](CO)[C@@H](O)[C@H](O)[C@H]3O)ccc2Cl)cc1 [dapagliflozin]
Incidence of dapagliflozin-related TEAEs, cotadutide group [1]: 4.0% | Incidence of dapagliflozin-related TEAEs, placebo group [1]: 8.3% | Dapagliflozin Cmax (literature) ([2]; Dapagliflozin NDA 202293): 120 ng/mL | Dapagliflozin tmax (literature) ([2]; Dapagliflozin NDA 202293): 1 h | Dapagliflozin half-life (literature) ([2]; literature data): 15 h
